Experimental data from ChEMBL document CHEMBL3045268, “Synthesis, anticancer, and molecular docking studies of pyranone derivatives” (Med Chem Res, 2013).

Columns and labels:
[1] = Antitumor activity against Mus musculus (mouse) EAC cells transplanted in mouse assessed as increase in life span at 75 mg/kg, ip relative to vehicle-treated control; type: functional, Ehrlich; conditions: route intraperitoneal
Mus musculus [2] = experiment: Toxicity in Mus musculus (mouse) transplanted with mouse EAC cells assessed as increase in hemoglobin level at 75 mg/kg, ip measured on day 13 post tumor implantation (reference value: 7.5 +/- 0.01 g%); type: organism-based, Ehrlich; set-up: dose 75 mg/kg, route intraperitoneal; conditions: in vivo
Mus musculus [3] = experiment: Toxicity in Mus musculus (mouse) transplanted with mouse EAC cells assessed as effect on RBC level at 75 mg/kg, ip measured on day 13 post tumor implantation (reference value: 3.95 +/- 0.32 million/mm3); type: organism-based, Ehrlich; set-up: dose 75 mg/kg, route intraperitoneal; conditions: in vivo
[4] = Antitumor activity against Mus musculus (mouse) EAC cells transplanted in mouse assessed as decrease in body weight at 75 mg/kg, ip measured up to 11 days relative to vehicle-treated control; type: functional, Ehrlich; set-up: scale not given: the % may be the effect or the level left; conditions: route intraperitoneal
Mus musculus [5] = experiment: Toxicity in Mus musculus (mouse) transplanted with mouse EAC cells assessed as effect on WBC level measured per 10^3 cells at 75 mg/kg, ip on day 13 post tumor implantation (reference value: 19.49 +/- 0.26 mm3); type: organism-based, Ehrlich; set-up: dose 75 mg/kg, route intraperitoneal; conditions: in vivo
Mus musculus [6] = experiment: Toxicity in Mus musculus (mouse) transplanted with mouse EAC cells assessed as effect on monocytes level at 75 mg/kg, ip measured on day 13 post tumor implantation (reference value: 1.4 +/- 0.24%); type: organism-based, Ehrlich; set-up: dose 75 mg/kg, route intraperitoneal; conditions: in vivo
Mus musculus [7] = experiment: Toxicity in Mus musculus (mouse) transplanted with mouse EAC cells assessed as effect on neutrophils level at 75 mg/kg, ip measured on day 13 post tumor implantation (reference value: 60.4 +/- 1.5%); type: organism-based, Ehrlich; set-up: dose 75 mg/kg, route intraperitoneal; conditions: in vivo
Mus musculus [8] = experiment: Toxicity in Mus musculus (mouse) transplanted with mouse EAC cells assessed as effect on lymphocytes level at 75 mg/kg, ip measured on day 13 post tumor implantation (reference value: 35.8 +/- 1.15%); type: organism-based, Ehrlich; set-up: dose 75 mg/kg, route intraperitoneal; conditions: in vivo
Mus musculus [9] = experiment: Toxicity in Mus musculus (mouse) transplanted with mouse EAC cells assessed as effect on lymphocytes level at 20 mg/kg, ip measured on day 13 post tumor implantation (reference value: 35.8 +/- 1.15%); type: organism-based, Ehrlich; set-up: dose 20 mg/kg, route intraperitoneal; conditions: in vivo
[10] = Antitumor activity against Mus musculus (mouse) EAC cells transplanted in mouse assessed as increase in life span at 20 mg/kg, ip relative to vehicle-treated control; type: functional, Ehrlich; conditions: route intraperitoneal
Mus musculus [11] = experiment: Toxicity in Mus musculus (mouse) transplanted with mouse EAC cells assessed as effect on monocytes level at 20 mg/kg, ip measured on day 13 post tumor implantation (reference value: 1.4 +/- 0.24%); type: organism-based, Ehrlich; set-up: dose 20 mg/kg, route intraperitoneal; conditions: in vivo
Mus musculus [12] = experiment: Toxicity in Mus musculus (mouse) transplanted with mouse EAC cells assessed as increase in hemoglobin level at 20 mg/kg, ip measured on day 13 post tumor implantation (reference value: 7.5 +/- 0.01 g%); type: organism-based, Ehrlich; set-up: dose 20 mg/kg, route intraperitoneal; conditions: in vivo
Mus musculus [13] = experiment: Toxicity in Mus musculus (mouse) transplanted with mouse EAC cells assessed as effect on WBC level measured per 10^3 cells at 20 mg/kg, ip on day 13 post tumor implantation (reference value: 19.49 +/- 0.26 mm3); type: organism-based, Ehrlich; set-up: dose 20 mg/kg, route intraperitoneal; conditions: in vivo
Mus musculus [14] = experiment: Toxicity in Mus musculus (mouse) transplanted with mouse EAC cells assessed as effect on RBC level at 20 mg/kg, ip measured on day 13 post tumor implantation (reference value: 3.95 +/- 0.32 million/mm3); type: organism-based, Ehrlich; set-up: dose 20 mg/kg, route intraperitoneal; conditions: in vivo
Mus musculus [15] = experiment: Toxicity in Mus musculus (mouse) transplanted with mouse EAC cells assessed as effect on neutrophils level at 20 mg/kg, ip measured on day 13 post tumor implantation (reference value: 60.4 +/- 1.5%); type: organism-based, Ehrlich; set-up: dose 20 mg/kg, route intraperitoneal; conditions: in vivo

SMILES	Activity [1]	Activity (Mus musculus [2])	Activity (Mus musculus [3])	Activity [4]	Activity (Mus musculus [5])	Activity (Mus musculus [6])	Activity (Mus musculus [7])	Activity (Mus musculus [8])	Activity (Mus musculus [9])	Activity [10]	Activity (Mus musculus [11])	Activity (Mus musculus [12])	Activity (Mus musculus [13])	Activity (Mus musculus [14])	Activity (Mus musculus [15])
Cc1cc(O)c(-c2csc(N3C(=O)CSC3c3ccc(Cl)cc3)n2)c(=O)o1 (stereo unspecified)	20.83%	8.54 g%	2.76 million/mm3	49.73%	18.2 10^3 cells/mm3	3%	52.2%	44%	–	–	–	–	–	–	–
Cc1cc(O)c(-c2csc(N3C(=O)CSC3c3cccc([N+](=O)[O-])c3)n2)c(=O)o1 (stereo unspecified)	-23.95%	11.35 g%	19.07 million/mm3	33.5%	33.9 10^3 cells/mm3	4%	63.2%	32%	–	–	–	–	–	–	–
Cc1cc(O)c(-c2csc(N3C(=O)CSC3c3ccc(O)cc3)n2)c(=O)o1 (stereo unspecified)	34.37%	13.08 g%	5.63 million/mm3	61.78%	16.6 10^3 cells/mm3	4.8%	34%	61%	–	–	–	–	–	–	–
COc1cc(C2SCC(=O)N2c2nc(-c3c(O)cc(C)oc3=O)cs2)cc(OC)c1OC (stereo unspecified)	-1.04%	10.48 g%	17.78 million/mm3	-1.047%	19.2 10^3 cells/mm3	2%	58.2%	39.4%	–	–	–	–	–	–	–
Cc1cc(O)c(-c2csc(NC(=O)CN3CCN(c4ccc(F)cc4)CC3)n2)c(=O)o1	-39.58%	11.96 g%	17.29 million/mm3	48.32%	17.6 10^3 cells/mm3	3%	66%	31%	–	–	–	–	–	–	–
Cc1cc(O)c(-c2csc(NC(=O)CN3CCN(C(=O)c4ccco4)CC3)n2)c(=O)o1	-12.5%	13.21 g%	6.28 million/mm3	46.59%	48.6 10^3 cells/mm3	4.6%	34%	62%	–	–	–	–	–	–	–
COc1ccccc1N1CCN(CC(=O)Nc2nc(-c3c(O)cc(C)oc3=O)cs2)CC1	27.08%	12.52 g%	4.12 million/mm3	58.11%	15.7 10^3 cells/mm3	4.8%	25%	70%	–	–	–	–	–	–	–
Cc1cc(O)c(-c2csc(NC(=O)CN3CCN(C)CC3)n2)c(=O)o1	-1.04%	10.64 g%	5 million/mm3	-1.007%	19.6 10^3 cells/mm3	1.4%	63.2%	35.4%	–	–	–	–	–	–	–
O=c1[nH]cc(F)c(=O)[nH]1 [FLUOROURACIL]	–	–	–	–	–	–	–	–	71%	57.29%	1.2%	13.99 g%	15.6 mm3	4.67 million/mm3	27.8%
